Here are results for 1 sequence from PMC7600788, “Sequence Permutation Generates Peptides with Different Antimicrobial and Antibiofilm Activities” (Pharmaceuticals, 2020).

Data set [1] can be described thus: HPLC retention time measurement (reverse-phase C18). The data set is classed as physicochemical. Here is the method:
The retention time of the peptide was measured on a Waters HPLC system equipped with an analytical reverse-phase WATERS C18 column (4.6 × 250 mm). The peptide detected at 220 and 280 nm was eluted with a gradient of acetonitrile (containing 1% TFA) from 5% to 95% at a flow rate of 1 mL/min [22].

Another data set deals with S. aureus USA300 LAC. The data set can be described thus: Disruption of 24 h established biofilms (XTT). The conditions noted are these: 12.5 µM, highest concentration tested, 24 h treatment. In kind it is cell-based, Staphylococcus aureus. Here is the method:
We also compared the effects of the peptides on established biofilms (24 h). […] When cells are alive (in the absence of peptide), the cell-permeant calcein-AM dye could enter the cells and gave green color as a consequence of the removal of acetoxymethyl (AM) esters by intracellular esterase (Figure 7A). When the cells were dead due to membrane damage by the peptide, the red dye ethidium homodimer (non-membrane permeable) could enter the cell and become red by binding to nucleic acids (Figure 7B).
The antibiofilm activity of the peptide against 24 h established biofilms was evaluated as previously described. In short, S. aureus USA300 LAC (10^5 CFU/mL) was made from exponential phase bacteria in TSB media and 180 μL were distributed to each well of the microtiter plate (Corning Costar Cat No. 3595, Amsterdam, The Netherlands). The plates were incubated at 37 °C for 24 h to form a biofilm. Culture treated with water served as a positive control while media without bacterial inoculation served as the negative control. Media were then pipetted out and the attached biofilms were washed with 1× PBS to remove the planktonic bacteria. Each well of the plate was then filled with 20 μL of 10× peptide solution and 180 μL of fresh TSB media and the plates were further incubated at 37 °C for 24 h. Media were then pipetted out and the wells were washed with 1× PBS to remove planktonic cells. The live cells in biofilms were estimated by XTT assay as mentioned above.
In general terms: Tetrazolium assays rely on reduction of a dye to a coloured formazan, in cell work by metabolically active cells.

A further data set relates to chicken red blood cells. The data set can be described thus: Hemolytic assay. The data set is classed as cell-based. The method in brief: (§1)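 RBCs washed in PBS and used as 2% (v/v) suspension; incubated with peptide 1 h at 37 °C, then centrifuged and haemoglobin release read at 545 nm. Lysis normalised to 2% Triton X-100 (100%) and PBS (0%); HC50 is the peptide concentration giving 50% lysis.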

Another data set concerns human red blood cells. The data set can be described thus: Hemolytic assay. The note with it: red cells of human. The data set is classed as cell-based. The method in brief: as §1
The test system of a further data set is Pig RBC. The data set can be described thus: Hemolytic assay. In kind it is cell-based. The method in brief:
as §1

A further data set concerns K. pneumonia ATCC 13883. The note with it: cited from earlier work. The text has this:
Table 2 Antibacterial activities of the WW peptides against various bacteria. | column: Minimal Inhibitory Concentration (MIC, μM) / KP ^a

No end group written: not given here. A value given as a limit tells only on which side of the number the result lay.

RKIWWWWL [WW295]: the “hydrophobicity implied by retention time (in words)” value in data set [1] (reverse-phase HPLC C18) is reported as “slightly higher hydrophobicity”. Also, in data set [1] (reverse-phase Waters C18 4.6 × 250 mm, acetonitrile (1% TFA) gradient 5% to 95%, 1 mL/min, detection 220 and 280 nm, taken as measure of hydrophobicity), the “HPLC (tr, min)” value is on record as 12.453 min. Also, the “disruption of established biofilms (24 h)” value with S. aureus USA300 LAC is on record as “did not disrupt MRSA biofilms significantly”. Also, the “Chicken RBC, concentration that caused 50% red blood cell lysis (HC50)” value in the data set with chicken red blood cells was determined as 100 µM. For the same sequence, the “Human RBC, concentration that caused 50% red blood cell lysis (HC50)” value in the data set with human red blood cells came out at 57 µM. In addition, the “Pig RBC, concentration that caused 50% red blood cell lysis (HC50)” value in the data set on Pig RBC is on record as above 100 µM. In addition, the “Minimal Inhibitory Concentration (MIC), KP” value in the data set with K. pneumonia ATCC 13883 is 3.1 to 6.2 µM.
